In patent US7906106B2, “In vivo cell trafficking” (General Electric Company, priority 2007, dated 2011):

Test system: granuloma-derived nucleated cells
Assay: FACS analysis to determine cell viability (7-AAD) after staining with Cy7.5 NHS-ester
Type: cell-based, mouse
Details: granuloma-derived nucleated cells stained with 1 μg dye in 10 ml PBS, on ice 20 minutes
Procedure: Cell Staining. 1 μg of Cy 7.5-NHS ester was mixed in 10 ml of PBS. The cells are resuspended in the buffer and left on ice for 20 minutes. Cells were washed three times in PBS and the cell pellet is placed under Optix scanner to confirm cell staining. The cells were resuspended in PBS and 100 μl of the cell suspension (containing 0.5×10^6 cells/100 μl) was injected via the tail vein. The stained cell pellet generated signal that was detected by the scanner.
FACS Analysis to Determine Cell Viability. Stained cells were washed three times in PBS and resuspended in 100 μl PBS. The cell suspension was incubated with 20 μl of 7-AAD for 20 minutes at room temperature. The cells are washed once in PBS and resuspended in 500 μl of PBS, then analyzed in FACS for viability.
FACS Analysis for Cellular Markers. The cells were stained with cell markers for leukocytes (CD45) and monocyte/macrophage (CD 11 b). Both CD11b and CD45 antibodies were purchased from Miltenyi Biotec and stained following vendors instructions. Thus, 10 μl of CD11b PE antibody and 10 μl CD45 FITC were incubated with 1×10^6 cells for 20 minutes. The cells were washed in PBS, resuspend in 0.5 mL PBS, and run on Flow Cytometer (Beckman Coulter FC500 MPL). The cells were viable after staining with Cye7.5 NHS-ester and 72% of cell population in the suspension were positive for CD45 and CD11b.

## Cy7.5-NHS ester [Cye7.5 NHS-ester]
  cell viability after staining: viable
